This passage reports MIC results from publication PMC4858212, “Production of the Ramoplanin Activity Analogue by Double Gene Inactivation” (PLoS ONE, 2016).

Converted amounts (≈) assume the structure as drawn. Read-outs that look alike come from different tables or passages of the source. Numbered stars: 1 amine (or outer) side, 2 acyl side, 3 side chain; on linkers, the order of the positions; unused ones are H or OH. Bridge positions count the residues as written; N and C are the ends. Square brackets hold non-standard residues; d marks the D form. Peptide text beside a SMILES is read from it. * marks the point of attachment. Hpg(αMan(1-2)αMan) = N[C@H](C(=O)O)c1ccc(O[C@H]2O[C@H](CO)[C@@H](O)[C@H](O)[C@@H]2O[C@H]2O[C@H](CO)[C@@H](O)[C@H](O)[C@@H]2O)cc1; Octa(2Z,4E)dienoyl(7-Me) = CC(C)C/C=C/C=C\C(=O)*; X1 = NC(=O)[C@@H](O[*:3])[C@H](N[*:1])C(=O)[*:2]; Hpg(3-Cl) = N[C@H](C(=O)O)c1ccc(O)c(Cl)c1; d(aThr) = C[C@@H](O)[C@@H](N)C(=O)O; dHpg = N[C@@H](C(=O)O)c1ccc(O)cc1; Hpg = N[C@H](C(=O)O)c1ccc(O)cc1; aThr = C[C@H](O)[C@H](N)C(=O)O; dOrn = NCCC[C@@H](N)C(=O)O

In test [1] the test system is Staphylococcus aureus ATCC43300. As to the method:
(§1) The activies of ramoplanin and its analogs against MRSA and VRE were determined using a liquid microdilution method. MIC values were detected according to the CLSI guidelines. ATCC 25923 (methicillin-sensitive Staphylococcus aureus, MSSA), ATCC 43300 (methicillin-resistant Staphylococcus aureus, MRSA), ATCC 29212 (Enterococcus faecalis) and ATCC 51299 (vancomycin-resistant Enterococcus faecalis, VRE) were employed in this study. Ramoplanin and its analogs were dissolved in 30% methyl alcohol, which was also used as the negative control during the serial tests.
(§2) Antibacterial activities of purified deschlororamoplanin A2 aglycone were compared with ramoplanin A2 and ramoplanin A2 aglycone. The MICs of ramoplanin A2, ramoplanin A2 aglycone and deschlororamoplanin A2 aglycone against ATCC 25923 (methicillin-sensitive Staphylococcus aureus, MSSA), ATCC 43300 (methicillin-resistant Staphylococcus aureus, MRSA), ATCC 29212 (Enterococcus faecalis) and ATCC 51299 (vancomycin-resistant Enterococcus faecalis, VRE) were determined.

The subject of test [2] is Enterococcus faecalis ATCC29212. As to the method: as §1, §2
The test system of test [3] is Enterococcus faecalis ATCC51299. The procedure: as §1, §2
For test [4], the system named is Staphylococcus aureus ATCC25923. The procedure: as §1, §2

One may read the MIC as the lowest concentration that inhibits growth of the organism. The low end stands for a more susceptible organism, the high end for a less susceptible organism. On to `CC(C)C/C=C/C=C\C(=O)N[C@@H](CC(N)=O)C(=O)N[C@@H]1C(=O)N[C@H](c2ccc(O)cc2)C(=O)N[C@H](CCCN)C(=O)N[C@H]([C@@H](C)O)C(=O)N[C@@H](c2ccc(O)cc2)C(=O)N[C@H](c2ccc(O)cc2)C(=O)N[C@@H]([C@H](C)O)C(=O)N[C@@H](Cc2ccccc2)C(=O)N[C@H](CCCN)C(=O)N[C@@H](c2ccc(O)cc2)C(=O)N[C@H]([C@@H](C)O)C(=O)N[C@@H](c2ccc(O)cc2)C(=O)NCC(=O)N[C@@H](CC(C)C)C(=O)N[C@H](C)C(=O)N[C@@H](c2ccc(O)cc2)C(=O)O[C@@H]1C(N)=O` [Deschlororamoplanin A2 aglycone] ({Octa(2Z,4E)dienoyl(7-Me)}-N[X1][dHpg][dOrn][d(aThr)][Hpg][dHpg][aThr]F[dOrn][Hpg][d(aThr)][Hpg]GL[dA][Hpg]; ester 2-C), for which the MIC in test [1] (ATCC43300) worked out at 4 µg/mL (≈ 1.82 µM); in test [2] (ATCC29212), 1 µg/mL (≈ 0.456 µM); in test [3] (ATCC51299), 1 µg/mL (≈ 0.456 µM); in test [4] (ATCC25923), 2 µg/mL (≈ 0.911 µM).
`CC(C)C/C=C/C=C\C(=O)N[C@@H](CC(N)=O)C(=O)N[C@@H]1C(=O)N[C@H](c2ccc(O)cc2)C(=O)N[C@H](CCCN)C(=O)N[C@H]([C@@H](C)O)C(=O)N[C@@H](c2ccc(O)cc2)C(=O)N[C@H](c2ccc(O)cc2)C(=O)N[C@@H]([C@H](C)O)C(=O)N[C@@H](Cc2ccccc2)C(=O)N[C@H](CCCN)C(=O)N[C@@H](c2ccc(O[C@H]3O[C@H](CO)[C@@H](O)[C@H](O)[C@@H]3O[C@H]3O[C@H](CO)[C@@H](O)[C@H](O)[C@@H]3O)cc2)C(=O)N[C@H]([C@@H](C)O)C(=O)N[C@@H](c2ccc(O)cc2)C(=O)NCC(=O)N[C@@H](CC(C)C)C(=O)N[C@H](C)C(=O)N[C@@H](c2ccc(O)cc2)C(=O)O[C@@H]1C(N)=O` [Deschlororamoplanin A2] ({Octa(2Z,4E)dienoyl(7-Me)}-N[X1][dHpg][dOrn][d(aThr)][Hpg][dHpg][aThr]F[dOrn][Hpg(αMan(1-2)αMan)][d(aThr)][Hpg]GL[dA][Hpg]; ester 2-C): the MIC in test [1] (ATCC43300) was determined as 2 µg/mL (≈ 0.794 µM); in test [2] (ATCC29212), 1 µg/mL (≈ 0.397 µM); in test [3] (ATCC51299), 1 µg/mL (≈ 0.397 µM); in test [4] (ATCC25923) it was 2 µg/mL (≈ 0.794 µM).
As to `CC(C)C/C=C/C=C\C(=O)N[C@@H](CC(N)=O)C(=O)N[C@@H]1C(=O)N[C@H](c2ccc(O)cc2)C(=O)N[C@H](CCCN)C(=O)N[C@H]([C@@H](C)O)C(=O)N[C@@H](c2ccc(O)cc2)C(=O)N[C@H](c2ccc(O)cc2)C(=O)N[C@@H]([C@H](C)O)C(=O)N[C@@H](Cc2ccccc2)C(=O)N[C@H](CCCN)C(=O)N[C@@H](c2ccc(O)cc2)C(=O)N[C@H]([C@@H](C)O)C(=O)N[C@@H](c2ccc(O)cc2)C(=O)NCC(=O)N[C@@H](CC(C)C)C(=O)N[C@H](C)C(=O)N[C@@H](c2ccc(O)c(Cl)c2)C(=O)O[C@@H]1C(N)=O` [Ramoplanin A2 aglycone] ({Octa(2Z,4E)dienoyl(7-Me)}-N[X1][dHpg][dOrn][d(aThr)][Hpg][dHpg][aThr]F[dOrn][Hpg][d(aThr)][Hpg]GL[dA][Hpg(3-Cl)]; ester 2-C), the MIC in test [1] (ATCC43300) was 2 µg/mL (≈ 0.897 µM); in test [2] (ATCC29212), 0.5 µg/mL (≈ 0.224 µM); in test [3] (ATCC51299) it was 1 µg/mL (≈ 0.448 µM); in test [4] (ATCC25923) it was 2 µg/mL (≈ 0.897 µM).
As to `CC(C)C/C=C/C=C\C(=O)N[C@@H](CC(N)=O)C(=O)N[C@@H]1C(=O)N[C@H](c2ccc(O)cc2)C(=O)N[C@H](CCCN)C(=O)N[C@H]([C@@H](C)O)C(=O)N[C@@H](c2ccc(O)cc2)C(=O)N[C@H](c2ccc(O)cc2)C(=O)N[C@@H]([C@H](C)O)C(=O)N[C@@H](Cc2ccccc2)C(=O)N[C@H](CCCN)C(=O)N[C@@H](c2ccc(O[C@H]3O[C@H](CO)[C@@H](O)[C@H](O)[C@@H]3O[C@H]3O[C@H](CO)[C@@H](O)[C@H](O)[C@@H]3O)cc2)C(=O)N[C@H]([C@@H](C)O)C(=O)N[C@@H](c2ccc(O)cc2)C(=O)NCC(=O)N[C@@H](CC(C)C)C(=O)N[C@H](C)C(=O)N[C@@H](c2ccc(O)c(Cl)c2)C(=O)O[C@@H]1C(N)=O` [Ramoplanin A2] ({Octa(2Z,4E)dienoyl(7-Me)}-N[X1][dHpg][dOrn][d(aThr)][Hpg][dHpg][aThr]F[dOrn][Hpg(αMan(1-2)αMan)][d(aThr)][Hpg]GL[dA][Hpg(3-Cl)]; ester 2-C), the MIC in test [1] (ATCC43300) is 4 µg/mL (≈ 1.57 µM); in test [2] (ATCC29212), 1 µg/mL (≈ 0.392 µM); in test [3] (ATCC51299), 1 µg/mL (≈ 0.392 µM); in test [4] (ATCC25923), 2 µg/mL (≈ 0.783 µM).
On to Enduracidin, for which the MIC in test [1] (Staphylococcus aureus ATCC43300 (methicillin-resistant, MRSA), liquid microdilution, CLSI guidelines, compounds dissolved in 30% methyl alcohol) turned out to be 8 µg/mL; in test [2] (Enterococcus faecalis ATCC29212, liquid microdilution, CLSI guidelines, compounds dissolved in 30% methyl alcohol), 8 µg/mL; in test [3] (Enterococcus faecalis ATCC51299 (vancomycin-resistant, VRE), liquid microdilution, CLSI guidelines, compounds dissolved in 30% methyl alcohol), 8 µg/mL; in test [4] (Staphylococcus aureus ATCC25923 (methicillin-sensitive, MSSA), liquid microdilution, CLSI guidelines, compounds dissolved in 30% methyl alcohol) it was 8 µg/mL.
